The source of these data is US20190284192A1, “NITROGENOUS MACROCYCLIC COMPOUND, PREPARATION METHOD THEREFOR, PHARMACEUTICAL COMPOSITION AND APPLICATION THEREOF” (LUOXIN PHARMACEUTICAL (SHANGHAI) CO., LTD., priority 2016, published 2019).

One assay deals with T1, BRD4 (BD1) (Homo sapiens, UniProt O60885).
T1 construct: Each member comprises two tandem bromodomains (BD1 and BD2) for recognizing the acetylated lysine residues
Put plainly: BRD4 (BD1) bromodomain binding, HTRF. Conditions: 2 h incubation at r.t. In general terms: TR-FRET usually uses a lanthanide donor and a delayed reading to cut background.

For another assay, the system named is MV-4-11 cells. Put plainly: Inhibitory effect on MV-4-11 cells (CellTiter-Glo). Conditions: Homo sapiens, MV4-11; 72 hours, CellTiter-Glo; read-out: MV-4-11. Type of assay: cell-based. In general terms: In ATP-based viability assays light output follows the ATP content of the culture.
A further assay concerns the target T2, BRD4 (BD2) (Homo sapiens, UniProt O60885).
T2 construct: Each member comprises two tandem bromodomains (BD1 and BD2) for recognizing the acetylated lysine residues
Put plainly: BRD4 (BD2) bromodomain binding, HTRF. Conditions: 2 h incubation at r.t.

Description for MV-4-11 cells: The 1st Day: Seed the Cells on the Plate
1. The cells were verified that they were in good conditions by observation under microscope;
2. The cells were transferred to a 15 mL centrifuge tube, after centrifuged at 1000 rpm for 5 min, the supernatant was discarded;
3. The complete medium (IMDM+10% FBS) was added, then blown and patted into single cell suspension, counted by Vi-cell cytometer, the cell suspension was adjusted to desired cell density by the complete medium.
4. The cells were inoculated into a 96 well plate, the cell number was 15000/well at 100 μL per well, 100 μL complete medium was added into the black control.
5. 37° C., 5% CO2 culture overnight.
The 2nd Day: Addition of the Drugs
1. 1000× Compound Plate Preparation
1.1. The test compound was prepared into 10 mM working solution by using DMSO. Then the STS was prepared into 2 mM working solution by using DMSO.
1.2. In the round bottom 96 wells plate, the column 2 of row A to H was added into 60 μL 10 mM test compound (or STS) working solution, columns 3-11 were added into 40 μL DMSO, 20 μL drug solution was pipetted from the column 2 to the column 3, blown and patted for a homogeneous mixture; then 20 μL solution was pipetted from the column 3 to the column 4, blown and patted for a homogeneous mixture, sequently, the drug was diluted by 3 times, 10 concentrations in total. The columns 1 and 12 were supplemented with 40 μL of DMSO.
2. Intermediate plate areparation
A sterile V-bottom 96 deep well plate was used and in each well, 495 μL FBS-free PRMI 1640 medium was added, then 5 μL of the diluted compound (or DMSO) in the 1000× compound plate was pipetted into corresponding position of the V-bottom 96 well plate, blown and patted evenly.
3.1. The cell plate was taken out from the incubator and was observed under microscope. The diluted compound or DMSO in the intermediate plate was added into the cell plate, 11 μL each well.
3.2. The cell was continued to be cultured at 37° C., 5% CO2 for 72 hours.
The 5th Day: CellTiter-Glo Detection of the Cell Activity
1. The CellTiter-Glo buffer and the reaction substrate were taken out from the refrigerator, after balanced to r.t., the buffer was poured into a brown bottle containing the substrate, the bottle was upside down to have the substrate powder sufficientaly dissolved.
2. The cell was observed under microscope; the cell plate was balanced to r.t.
3. The prepared CellTiter-Glo was added into the 96 well plate, at 100 μL/well.
4. The cell plate was placed on a shaker for 10 min, followed by standing at r.t. for 10 min.
5. A white seal film was attached to the bottom of the well plate, and the chemiluminescence signal of each well was detected by the Enspire microplate detector.
6. XLfit was used for data processing. Inhibition rate %=(d−c)/(d−b)×100, while d is the signal value of the DMSO treated group, c is the signal value of the compound treated group, b is signal value of the blank control that only containing medium and DMSO without cells. The data was fitted using the f(x)205[fit=(A+((B−A)/(1+((C/x)^∧D))))] equation in the XLfit software.

As to `CCS(=O)(=O)Cc1ccc2c(c1)-c1cn(C)c(=O)cc1CN=C2c1ccc(F)cc1Cl` [Compound 4028, 7-(2-chloro-4-fluorophenyl)-10-((ethylsulfone)methyl)-2-methyl-2,5-dihydro-3H-benzo[c]pyrido[3,4-e]azepin-3-ketone], the IC50 at BRD4 (BD1) amounted to 22 nM; in the assay with MV-4-11 cells it was 161 nM; at BRD4 (BD2) it was 2 nM.
The matching figures for `Cn1cc2c(cc1=O)[C@H](CC(N)=O)N=C(c1ccc(Cl)cc1)c1ncccc1-2` [Compound 4029, (S)-2-(7-(4-chlorophenyl)-2-methyl-3-oxo-3,5-dihydro-2H-dipyrido[2,3-c:3′,4′-e]azepin-5-yl)acetamide]: 6 nM, 69 nM and 2 nM.
Regarding `CCNC(=O)C[C@@H]1N=C(c2ccc(Cl)cc2)c2ncccc2-c2cn(C)c(=O)cc21` [Compound 4030, (S)-2-(7-(4-chlorophenyl)-2-methyl-3-oxo-3,5-dihydro-2H-dipyrido[2,3-c:3′,4′-e]azepin-5-yl)-N-ethyl acetamide], the IC50 was determined as 6 nM at BRD4 (BD1), 17 nM in the assay on MV-4-11 cells and 2 nM on BRD4 (BD2).
The corresponding values for `CC(C)NC(=O)C[C@@H]1N=C(c2ccc(Cl)cc2)c2ccccc2-c2cn(C)c(=O)cc21` [Compound 4032, (S)-2-(7-(4-chlorophenyl)-2-methyl-3-oxo-3,5-dihydro-2H-benzo[c]pyrido[3,4-e]azepin-5-yl)-N-isopropylacetamide] are 3 nM, 6 nM and 2 nM.
The matching figures for `CCS(=O)(=O)Cc1ccc2c(c1)-c1cn(C)c(=O)cc1[C@@H](C)N=C2c1ccc(F)cc1` [Compound 4033, (R)-10-((ethylsulfone)methyl)-7-(4-fluorophenyl)-2,5-dimethyl-2,5-dihydro-3H-benzo[c]pyrido[3,4-e]azepin-3-ketone]: 341 nM, 985 nM and 144 nM.
`CCNC(=O)C[C@@H]1N=C(c2ccc(Cl)cc2)c2cc(F)ccc2-c2cn(C)c(=O)cc21` [Compound 4034, (S)-2-(7-(4-chlorophenyl)-9-fluoro-2-methyl-3-oxo-3,5-dihydro-2H-benzo[c]pyrido[3,4-e]azepin-5-yl)N-ethyl acetamide]: the results for the IC50 on BRD4 (BD1), in the assay with MV-4-11 cells and at BRD4 (BD2) were 4 nM, 15 nM and 1 nM, respectively.
As for `CCS(=O)(=O)Cc1ccc2c(c1)-c1cn(C)c(=O)cc1[C@H](C)N=C2c1ccc(Cl)cc1` [Compound 4037, (S)-10-((ethylsulfonyl)methyl)-7-(4-chlorophenyl)-2,5-dimethyl-2,5-dihydro-3H-benzo[c]pyrido[3,4-e]azepin-3-ketone], the IC50 on BRD4 (BD1) came out at 2 nM; in the assay with MV-4-11 cells, 6 nM; at BRD4 (BD2), 1 nM.
With `CCS(=O)(=O)Cc1ccc2c(c1)-c1cn(C)c(=O)cc1[C@H](C(F)(F)F)N=C2c1ccc(F)cc1` [Compound 4040, (R)-10-((ethylsulfonyl)methyl)-7-(4-flurophenyl)-2-methyl-5-(trifluoromethyl)-2,5-dihydro-3H-benzo[c]pyrido[3,4-e]azepin-3-ketone], the IC50 on BRD4 (BD1) was found to be 5 nM; with MV-4-11 cells, 43 nM; at BRD4 (BD2), 2 nM.
The matching figures for `CCS(=O)(=O)Cc1ccc2c(c1)-c1cn(C)c(=O)cc1[C@H](C1CC1)N=C2c1ccc(F)cc1` [Compound 4042, (S)-5-cyclopropyl-10-((ethylsulfonyl)methyl)-7-(4-flurophenyl)-2-methyl-2,5-dihydro-3H-benzo[c]pyrido[3,4-e]azepin-3-ketone]: 1 nM, 7 nM and 1 nM.
Regarding `C[C@@H]1N=C(c2ccc(F)cc2)c2ccc(CS(=O)(=O)C(F)(F)F)cc2-c2cn(C)c(=O)cc21` [Compound 4043, (S)-7-(4-flurophenyl)-2,5-dimethyl-10-((trifluoromethylsulphone)methyl)-2,5-dihydro-3H-benzo[c]pyrido[3,4-e]azepin-3-ketone], the IC50 on BRD4 (BD1) was determined as 1 nM; in the assay on MV-4-11 cells it was 8 nM; on BRD4 (BD2), 2 nM.
